Test results from the OPERA property sets (Mansouri et al. 2018).

Settings: for log10 BCF / log10 biotransformation half-life (days): fish

C1CCC2C(C1)CCC1C3CCCCC3CCC21 (stereo unspecified)
boiling point: 353 °C
melting point: 115 °C

O=Cc1ccco1
boiling point: 162 °C
log10 vapour pressure (mmHg): 0.344
melting point: -38.1 °C
ready biodegradability: readily biodegradable

CC1CC1(C)C (stereo unspecified)
boiling point: 54 °C
melting point: -138 °C

CC(C)(C)NCC(O)COc1ccccc1C#N (stereo unspecified)
melting point: 164 °C

O=C(O)CN(CC(=O)O)CC(=O)O
ready biodegradability: not readily biodegradable

Cc1ccc2ccc(C)nc2c1
boiling point: 264 °C
melting point: 61 °C

c1ccc(C2CCNCC2)cc1
boiling point: 257 °C
melting point: 60.5 °C

Cc1cc(Cl)ccc1NC(=S)N(C)C
melting point: 175 °C

Cc1coc2ccccc12
boiling point: 197 °C

CS(=O)(=O)CCCN=C=S
melting point: 47.5 °C

Cc1cccc2sc3nncn3c12
boiling point: 275 °C
log10 Koc (L/kg): 3.09
log10 vapour pressure (mmHg): -6.7
melting point: 187 °C

c1ccc2c(c1)NCCN2
boiling point: 289 °C
melting point: 99 °C

C1=CCNCC1
boiling point: 108 °C
melting point: -48 °C

CCC#CCCCCC(=O)O
melting point: 14 °C

Cc1cc(CO)c(O)c(CO)c1
melting point: 129 °C

Cc1cccc(CC#N)c1
boiling point: 248 °C

Cc1nccn1C
boiling point: 206 °C

CC(=O)C=CC1=C(C)CCCC1(C)C
log10 vapour pressure (mmHg): -1.27

ClC1=C(Cl)[C@]2(Cl)[C@@H]3[C@@H]4C[C@@H]([C@H]5O[C@@H]45)[C@@H]3[C@@]1(Cl)C2(Cl)Cl (single isomer, unassigned)
boiling point: 330 °C
log10 Henry constant (atm·m³/mol): -5.09
log10 Koa: 8.52
log10 Koc (L/kg): 4.08
log10 vapour pressure (mmHg): -5.38
melting point: 202 °C
ready biodegradability: not readily biodegradable
log10 BCF: 3.91
log10 biotransformation half-life (days): 1.65

Cc1ccc(NC(O)=NC(C)(C)c2ccccc2)cc1
log10 vapour pressure (mmHg): -8.47
melting point: 203 °C

Sc1ccc(Br)cc1
boiling point: 230 °C
melting point: 73 °C

CC(Br)Br
boiling point: 108 °C
log10 vapour pressure (mmHg): 1.41
melting point: -63 °C

C#C[C@]1(O)C=C[C@H]2[C@@H]3CCC4=CC(=O)CC[C@@H]4[C@H]3CC[C@@]21CC
melting point: 198 °C

O=C(O)c1cccc(Cl)c1Cl
log10 vapour pressure (mmHg): -3.64
melting point: 169 °C

CCCCC(=O)OCCC
boiling point: 168 °C
melting point: -70.7 °C

ClC(Br)Br
boiling point: 120 °C
log10 Henry constant (atm·m³/mol): -3.11
log10 Koa: 3.59
log10 Koc (L/kg): 1.92
melting point: -20 °C
ready biodegradability: not readily biodegradable

CC(C)C(C)CCC(C)C1CCC2=C3CCC4CC(O)CCC4(C)C3CCC21C (stereo unspecified)
melting point: 131 °C

Nc1ccc(C2(c3ccc(N)cc3)OC(=O)c3ccccc32)cc1
melting point: 203 °C

O=C=Nc1cccc([N+](=O)[O-])c1
melting point: 51 °C

CCc1cccc(C)c1N(C(=O)CCl)C(C)COC (stereo unspecified)
log10 Henry constant (atm·m³/mol): -8.05
log10 Koc (L/kg): 2.46
log10 vapour pressure (mmHg): -4.5
melting point: -51 °C

CCNc1nc(Cl)nc(NC(C)(C)C)n1
log10 Koc (L/kg): 2.32
log10 vapour pressure (mmHg): -5.95
melting point: 178 °C

CN(C)c1ccc(Cc2ccc(N(C)C)cc2)cc1
boiling point: 390 °C
log10 Koc (L/kg): 3.96
melting point: 91.5 °C
ready biodegradability: not readily biodegradable
log10 biotransformation half-life (days): -0.04

O=C(O)CCCCCCCCCCCC(=O)O
melting point: 111 °C

CC1=C(C)S(=O)(=O)CCS1(=O)=O
log10 Koc (L/kg): 0.48
log10 vapour pressure (mmHg): -6.42
melting point: 165 °C

CCCCC(CC)COC(=O)c1ccccc1C(=O)OCC(CC)CCCC (stereo unspecified)
boiling point: 384 °C
log10 Koc (L/kg): 4.94
log10 vapour pressure (mmHg): -6.85
melting point: -55 °C
ready biodegradability: not readily biodegradable
log10 BCF: 2.77
log10 biotransformation half-life (days): 0.44

Clc1ccc2c(Cl)cc(Cl)c(Cl)c2c1
log10 Koa: 8.13
log10 vapour pressure (mmHg): -5.07

CCOCCOC(=O)C=Cc1ccc(OC)cc1
melting point: -25 °C

CCOP(=S)(NC(C)C)Oc1ccccc1C(=O)OC(C)C (stereo unspecified)
log10 Koc (L/kg): 2.78
log10 vapour pressure (mmHg): -5.52
melting point: -12 °C
log10 BCF: 2.12
log10 biotransformation half-life (days): -0.51

O=C(O)c1cc(Cl)cc(Cl)c1Cl
log10 vapour pressure (mmHg): -3.51
melting point: 166 °C

C[C@H](N)[C@H](O)c1cccc(O)c1
boiling point: 218 °C
melting point: 108 °C

CCC(=O)CCl
boiling point: 138 °C

C1=CCCC=CCC1
boiling point: 151 °C
log10 vapour pressure (mmHg): 0.695
melting point: -56.4 °C

O=C=Nc1ccc(Cl)c(Cl)c1
melting point: 43 °C

CCC(O)CO[N+](=O)[O-] (stereo unspecified)
log10 Henry constant (atm·m³/mol): -6.76

CCN(CC)CCOC(=O)c1ccc(N)cc1
melting point: 61 °C

Cc1ccc(F)cc1[N+](=O)[O-]
boiling point: 213 °C
melting point: 27 °C

CC(CN(C)C)CN1c2ccccc2Sc2ccccc21 (stereo unspecified)
melting point: 68 °C

CCCOC(=O)CCC(=O)OCCC
boiling point: 251 °C
melting point: -5.9 °C

N#Cc1ccccc1[N+](=O)[O-]
melting point: 108 °C

C=COC(=O)CCC
melting point: 117 °C

CCCC(C)C1(CC)C(=O)N=C(O)NC1=O (stereo unspecified)
melting point: 130 °C

O[C@@H]1CO[C@H]2[C@@H]1OC[C@@H]2O
melting point: 75.2 °C

C1=CCNC1
boiling point: 90.5 °C

COc1ccc2c(c1)[nH]c1c(C)nccc12
melting point: 273 °C

CC=Cc1ccccc1O
boiling point: 220 °C
melting point: -6 °C

CCCCCS
boiling point: 127 °C
log10 vapour pressure (mmHg): 1.14
melting point: -75.7 °C

CCCCCCCCCCCC[N+](CCO)(CCO)Cc1ccccc1.[Cl-]
melting point: 108 °C

CC(C(O)c1ccccc1)N(C)C/C=C/c1ccccc1 (stereo unspecified)
melting point: 75 °C

NC(=O)COC(=O)c1ccccc1
melting point: 121 °C

Cc1cn[nH]c1
boiling point: 206 °C

Oc1c(Cl)c(Cl)c(Cl)c(Cl)c1Cl
boiling point: 310 °C
log10 Henry constant (atm·m³/mol): -7.61
log10 Koc (L/kg): 4.3
log10 vapour pressure (mmHg): -3.96
melting point: 174 °C
ready biodegradability: not readily biodegradable
log10 BCF: 2.66
log10 biotransformation half-life (days): -0.2

CC(C)OC(=O)COc1ccc(Cl)cc1Cl
log10 vapour pressure (mmHg): -3.63
melting point: 5 °C

C[C@]12N[C@H](Cc3ccccc31)c1ccccc12
melting point: 68.8 °C

CCCCC(C)CC(C)C (stereo unspecified)
boiling point: 156 °C

CCC(C)(C)OC
boiling point: 86.3 °C
log10 Henry constant (atm·m³/mol): -2.88
log10 vapour pressure (mmHg): 1.88

CC(/C=C/C=C(C)/C=C/[C@@]12O[C@]1(C)C[C@@H](O)CC2(C)C)=C\C=C\C=C(C)\C=C\C=C(C)\C=C\[C@@]12O[C@]1(C)C[C@@H](O)CC2(C)C
melting point: 208 °C

C=CC(=O)Oc1c(Br)cc(Cl)c2cccnc12
melting point: 100 °C

CCNc1cccc(C)c1
boiling point: 221 °C

CNc1ccc(NC)c2c1C(=O)c1ccccc1C2=O
log10 vapour pressure (mmHg): -10.7
melting point: 220 °C

CCc1ccccc1O
boiling point: 204 °C
log10 vapour pressure (mmHg): -0.815
melting point: 18 °C

COc1ccc(CCC(C)=O)cc1
melting point: 8 °C

NCCCCCCCN
boiling point: 224 °C
melting point: 28.9 °C

O=C(O)c1c(Br)cccc1Br
melting point: 150 °C

CCCNC(C)C
boiling point: 96.9 °C

O=C(O)c1ccc(O)c(Cl)c1
melting point: 171 °C
ready biodegradability: not readily biodegradable

c1cncc(-c2cccnc2)c1
boiling point: 292 °C
melting point: 68 °C

COc1cccc(Br)c1
boiling point: 211 °C

Oc1ccc(-c2ccccc2)cc1Cl
melting point: 77 °C

CCOC(O)C(F)(F)F (stereo unspecified)
boiling point: 104 °C

COC(=O)c1ccoc1
boiling point: 160 °C

O=C1Nc2ccccc2CCc2ccccc21
ready biodegradability: readily biodegradable

C/N=C(\NC)NCc1ccccc1
melting point: 196 °C

CN(C)CCCN(C)C
boiling point: 144 °C

CS(=O)(=O)c1c(F)c(F)c(F)c(F)c1F
log10 Koc (L/kg): 1.46

CC(C=NO)=NO
melting point: 157 °C

CCCCC(CCCC)CCCC
boiling point: 218 °C

CC(O)C(C)O (racemic)
boiling point: 182 °C
log10 vapour pressure (mmHg): -0.677
melting point: 16.3 °C

Cc1cc(N)nc(C)n1
melting point: 183 °C

Cc1cccc(NC=O)c1
boiling point: 290 °C

CCC(C)(O)CCCC(C)C (stereo unspecified)
boiling point: 196 °C
melting point: 31.5 °C
